The record followed here is KR20240040049A, “신규 화합물 및 이를 포함하는 염증성 질환과 암에 대한 진단 및 치료에 사용되는 mri 조영제” (주식회사 테라노큐어, priority 2022, dated 2024).

One data set can be described thus: water solubility at 25℃. The data set is classed as physicochemical. The note with it: for solubility: water.
Data set [1] in a line: r1 relaxivity of gadolinium complexes. It counts as physicochemical. Particulars: in words; comparison among compounds.
A further data set relates to PARP. Put plainly: acute hepatitis animal model (LPS and D-galactosamine): PARP. It counts as in vivo. Particulars: Gd-galangin i.v. 0.1 mmol/kg, galangin oral.
Data set [2] has as its system LPS-induced inflamed tissue (LPS로 유발된 염증 조직). Put plainly: H&E staining of LPS-induced inflamed tissue. It counts as in vivo.
For a further data set, the system named is NLRP3. Put plainly: acute hepatitis animal model (LPS and D-galactosamine): NLRP3. The data set is classed as in vivo. The note with it: Gd-galangin i.v. 0.1 mmol/kg, galangin oral.

Each structure is given as a SMILES string. Converted amounts (≈) assume the structure as drawn. “Also recorded” adds a separate entry of the source.

As for `O=c1cc(-c2ccccc2)oc2cc(O)ccc12` [7-hydroxyflavone, 7-Hydroxyflavone], in “water solubility at 25℃”, the solubility in water came to 356 µM (≈ 84.8 µg/mL), the “solubility in water (words)” value is given as “거의 물에 녹지 않는 불용성 물질; also recorded: Insoluble” and the concentration in solution (solubility) came to 85 µg/mL (≈ 357 µM).

For the compound `O=C([O-])CN1CCN(CC(=O)[O-])CCN(C(CO)C(O)CO)CCN(CC(=O)[O-])CC1.[Gd+3]` (stereo not drawn) [Gd-BT-DO3A], the r1 relaxivity entry in data set [1] is “유사한 값”.

With `O=C([O-])CN1CCN(CC(=O)[O-])CCN(CC(=O)O)CCN(CC(=O)[O-])CC1.[Gd+3]` [Gd-DOTA], the r1 relaxivity entry in data set [1] is listed as “유사한 값”.

Regarding `O=c1cc(-c2ccccc2)oc2cc(O)cc(O)c12` [chrysin], in the data set “water solubility at 25℃”, the solubility in water was determined as 330 µM (≈ 83.9 µg/mL), the “solubility in water (words)” value is on record as “거의 물에 녹지 않는 불용성 물질; also recorded: Insoluble” and the solubility amounted to 84 µg/mL (≈ 330 µM).

As to `O=c1c(O)c(-c2ccccc2)oc2cc(O)cc(O)c12` [galangin, 3,5,7-트리히드록시플라본], in the data set with PARP, the “effect on PARP” value is “아무런 효과를 보이지 않았으며”. Moreover, in the data set “water solubility at 25℃”, the solubility in water came to 2117 µM (≈ 572 µg/mL), the “solubility in water (words)” value is “거의 물에 녹지 않는 불용성 물질; also recorded: Insoluble” and the concentration in solution (solubility) came to 572 µg/mL (≈ 2120 µM). For the same compound, the “intercellular spacing / closeness to normal tissue” value in data set [2] (Gd-galangin i.v. versus galangin oral) is reported as “전반적으로 더 벌어져”. Moreover, the “histological state compared with LPS alone” value in data set [2] (Gd-galangin i.v., galangin oral) was “더 나은 상태”. Besides, the “effect on NLRP3” value with NLRP3 is given as “아무런 효과를 보이지 않았으며”.

In general, solubility refers to the dissolved amount per volume that the medium holds. A higher solubility goes with a readily soluble substance.
